From patent US8324241B2, “Triazolo compounds useful as DGAT1 inhibitors” (Bristol-Myers Squibb Company, priority 2008, dated 2012) come the findings set out here.

This experiment addresses T1, recombinant human DGAT1 (Homo sapiens, UniProt O75907).
T1 construct: made in house; host or cells: Sf9 insect cells (baculovirus), used as a membrane preparation
T1 sequence (O75907 1-488): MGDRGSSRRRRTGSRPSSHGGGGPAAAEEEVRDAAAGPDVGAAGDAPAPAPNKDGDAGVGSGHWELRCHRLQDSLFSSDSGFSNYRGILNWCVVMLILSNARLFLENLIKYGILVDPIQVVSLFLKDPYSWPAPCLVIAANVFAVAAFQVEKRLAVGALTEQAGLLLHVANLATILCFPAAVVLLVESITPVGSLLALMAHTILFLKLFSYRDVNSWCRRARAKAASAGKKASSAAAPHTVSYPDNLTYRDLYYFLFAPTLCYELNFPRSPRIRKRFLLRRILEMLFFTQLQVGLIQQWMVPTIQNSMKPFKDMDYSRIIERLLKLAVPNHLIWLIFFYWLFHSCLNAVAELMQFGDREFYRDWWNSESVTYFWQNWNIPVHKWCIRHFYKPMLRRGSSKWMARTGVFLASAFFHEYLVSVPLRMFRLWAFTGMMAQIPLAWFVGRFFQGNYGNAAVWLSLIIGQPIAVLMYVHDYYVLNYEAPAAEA
As to the kind of experiment: DGAT1 enzyme assay (SPA, membranes from Sf9 insect cells). The following applies: 300 ng recombinant human DGAT1 membrane (Sf9), 25 μM 2-monooleoylglycerol, 25 μM [3H]-stearoyl-CoA, pH 7.4, 30 min, 25° C.; read-out: DGAT1 Enzyme Assay IC50 (inhibition). Format: biochemical. The procedure: DGAT1 enzyme assays were conducted using membranes isolated from Sf9 insect cells expressing the recombinant human DGAT1 cDNA. The assays were conducted in 384-well plates with total volume of 25 μl at 25° C. In each assay, 300 ng of recombinant human DGAT1 membrane was incubated with 25 μM of 2-monooleoylglycerol and 25 μM of [^3H]-stearoyl-CoA in 100 mM potassium phosphate (pH 7.4) for 30 min with various concentrations of compounds delivered in DMSO. The assay was terminated by the addition of 30 μl of Stopping Solution [50 mM HEPES, 5 mg/mL Yttrium Oxide (YOX) Polylysine SPA beads, 3.33 mg/mL Fraction V BSA, 200 μM Mercuric chloride]. The signal was measured using LEADSEEKER^SM for 5 minutes. To calculate the degree of inhibition, the zero level of enzyme activity (blank) was defined by the above assay using Sf9 cell membrane uninfected with baculovirus and the 100% level of DGAT1 enzyme activity was defined by human DGAT1 assay with the vehicle DMSO. The IC50 values of inhibitors were determined by Excel-fit.
What is called IC50 is the midpoint of a concentration-inhibition curve. For the molecule `CC[C@H](C)[C@H](NC(=O)c1cccn2c(-c3ccc(NC(=O)Nc4ccccc4OC(F)(F)F)cc3)nnc12)C(=O)O` [Example 16], the IC50 is 3 nM.

Turning to `O=C(O)CNC(=O)c1cccn2c(-c3ccc(NC(=O)Nc4ccccc4OC(F)(F)F)cc3)nnc12` [Example 5], the IC50 turned out to be 170 nM.

In the case of `CC[C@H](NC(=O)c1cccn2c(-c3ccc(Nc4nc5ccc(Cl)cc5s4)cc3)nnc12)C(=O)O` [Example 41], the IC50 was determined as 5 nM.

In the case of `CC(C)[C@H](NC(=O)c1cccn2c(-c3ccc(Nc4nc5ccc(Cl)cc5s4)cc3)nnc12)C(=O)O` [Example 25, (S)-2-(3-(4-(6-Chlorobenzo[d]thiazol-2-ylamino)phenyl)-[1,2,4-]triazolo[4,3-a]pyridine-8-carboxamido)-3-methylbutanoic acid], the IC50 was 7 nM.

As for `CC(C)[C@H](NC(=O)c1nccn2c(-c3ccc(Nc4nc5ccc(Cl)cc5s4)cc3)nnc12)C(=O)O` [Example 63, (S)-2-(3-(4-(6-Chlorobenzothiazol-2-ylamino)phenyl)-[1,2,4]triazolo[4,3-a]pyrazine-8-carboxamido)-3-methylbutanoic acid], the IC50 was found to be 7 nM.

For `C[C@@H](NC(=O)c1cccn2c(-c3ccc(Nc4nccs4)cc3)nnc12)C(=O)O` [Example 47], the IC50 was 28000 nM.

On to `O=C(O)CCNC(=O)c1cccn2c(-c3ccc(NC(=O)Nc4ccccc4OC(F)(F)F)cc3)nnc12` [Example 6], for which the IC50 was 150 nM.

Regarding `O=C(O)CNC(=O)c1cccn2c(-c3ccc(Nc4nccs4)cc3)nnc12` [Example 53], the IC50 is 23000 nM.

Take `O=C(Nc1ccc(-c2nnc3c(C(=O)N[C@@H](Cc4ccccc4)C(=O)O)cccn23)cc1)Nc1ccccc1OC(F)(F)F` [Example 11]: the IC50 came out at 150 nM.

For `COC(=O)Nc1ccc(-c2nnc3c(C(=O)N4CCC[C@H]4C(=O)O)cccn23)cc1` [Example 22, (S)-1-(3-(4-(Methoxycarbonylamino)phenyl)-[1,2,4]triazolo[4,3-a]pyridine-8-carbonyl)pyrrolidine-2-carboxylic acid], the IC50 was determined as 31000 nM.

Take `CCC(=O)Nc1ccc(-c2nnc3c(C(=O)N[C@H](C(=O)O)C(C)C)cccn23)cc1` [Example 23, (S)-3-Methyl-2-(3-(4-propionamidophenyl)-[1,2,4]triazolo[4,3-a]pyridine-8-carboxamido)butanoic acid]: the IC50 stood at 43000 nM.

Regarding `O=C(Nc1ccc(-c2nnc3c(C(=O)N[C@H](C(=O)O)C4CCCCC4)cccn23)cc1)Nc1ccccc1OC(F)(F)F` [Example 14], the IC50 was determined as 180 nM.
